In ChEMBL document CHEMBL3885881, “DrugMatrix”:

Species on record: Rattus norvegicus
Assay: DrugMatrix - Regimen: Daily Repeat
Type: toxicity, organism-based, Sprague-Dawley
Parameters: regimen Daily Repeat, gender Male, age 6-8 weeks
Details: in vivo, po, route oral GAVAGE, […]; for ABSOLUTE BASOPHIL / ABSOLUTE EOSINOPHIL / ABSOLUTE LYMPHOCYTE / ABSOLUTE MONOCYTE / ABSOLUTE SEGMENTED NEUTROPHIL / BASOPHIL / EOSINOPHIL / ERYTHROCYTE COUNT / HEMATOCRIT / HEMOGLOBIN / LEUKOCYTE COUNT / LYMPHOCYTE / MEAN CORPUSCULAR HEMOGLOBIN / MEAN CORPUSCULAR HEMOGLOBIN CONCENTRATION / MEAN CORPUSCULAR VOLUME / MONOCYTE / NEUTROPHIL / NUCLEATED RED BLOOD CELLS / PLATELET COUNT: tissue Blood; for ALANINE AMINOTRANSFERASE / ALBUMIN / ALKALINE PHOSPHATASE / ASPARTATE AMINOTRANSFERASE / BLOOD UREA NITROGEN / CARBON DIOXIDE / CHLORIDE / CHOLESTEROL / CREATINE PHOSPHOKINASE / CREATININE / GLUCOSE / LACTATE DEHYDROGENASE / LIPASE / PHOSPHORUS / POTASSIUM / SODIUM / TOTAL BILIRUBIN / TOTAL PROTEIN / URIC ACID: tissue Plasma
[1] = 79 mg/kg, 72 h, dose level Low, time 3 day
[2] = 79 mg/kg, 120 h, dose level Low, time 5 day
[3] = 2500 mg/kg, 72 h, dose level High, time 3 day
[4] = 2500 mg/kg, 120 h, dose level High, time 5 day

COc1ccc2cc(CCC(C)=O)ccc2c1 [NABUMETONE]
ABSOLUTE BASOPHIL [1]: 0 CELLS/uL | ABSOLUTE EOSINOPHIL [1]: 0 CELLS/uL | ABSOLUTE LYMPHOCYTE [1]: 14572 CELLS/uL | ABSOLUTE MONOCYTE [1]: 0 CELLS/uL | ABSOLUTE SEGMENTED NEUTROPHIL [1]: 1228 CELLS/uL | BASOPHIL [1]: 0% | EOSINOPHIL [1]: 0% | ERYTHROCYTE COUNT [1]: 5.17 x10E6/uL | HEMATOCRIT [1]: 32.13% | HEMOGLOBIN [1]: 12.87 G/DL | LEUKOCYTE COUNT [1]: 15.8 x10E3/uL | LYMPHOCYTE [1]: 92.33% | MEAN CORPUSCULAR HEMOGLOBIN [1]: 24.87 pg | MEAN CORPUSCULAR HEMOGLOBIN CONCENTRATION [1]: 40.07 G/DL | MEAN CORPUSCULAR VOLUME [1]: 62.1 fL | MONOCYTE [1]: 0% | NEUTROPHIL [1]: 7.67% | NUCLEATED RED BLOOD CELLS [1]: 0 /100WBC | PLATELET COUNT [1]: 1308.67 x10E3/uL | ALANINE AMINOTRANSFERASE [1]: 72.33 u/L | ALBUMIN [1]: 4 G/DL | ALKALINE PHOSPHATASE [1]: 371 u/L | ASPARTATE AMINOTRANSFERASE [1]: 79.33 u/L | BLOOD UREA NITROGEN [1]: 15.67 mg/dL | CARBON DIOXIDE [1]: 31 mmol/L | CHLORIDE [1]: 103 MEQ/L | CHOLESTEROL [1]: 83.67 mg/dL | CREATINE PHOSPHOKINASE [1]: 226.33 u/L | CREATININE [1]: 0.12 mg/dL | GLUCOSE [1]: 150.67 mg/dL | LACTATE DEHYDROGENASE [1]: 93.33 u/L | LIPASE [1]: 10 u/L | PHOSPHORUS [1]: 12.3 mg/dL | POTASSIUM [1]: 6.52 MEQ/L | SODIUM [1]: 144.77 MEQ/L | TOTAL BILIRUBIN [1]: 0.13 mg/dL | TOTAL PROTEIN [1]: 5.33 G/DL | URIC ACID [1]: 1.73 mg/dL | ABSOLUTE BASOPHIL [2]: 0 CELLS/uL | ABSOLUTE EOSINOPHIL [2]: 33.67 CELLS/uL | ABSOLUTE LYMPHOCYTE [2]: 9495 CELLS/uL | ABSOLUTE MONOCYTE [2]: 148 CELLS/uL | ABSOLUTE SEGMENTED NEUTROPHIL [2]: 1090 CELLS/uL | BASOPHIL [2]: 0% | EOSINOPHIL [2]: 0.33% | ERYTHROCYTE COUNT [2]: 5.45 x10E6/uL | HEMATOCRIT [2]: 33.1% | HEMOGLOBIN [2]: 13.23 G/DL | LEUKOCYTE COUNT [2]: 10.77 x10E3/uL | LYMPHOCYTE [2]: 88.33% | MEAN CORPUSCULAR HEMOGLOBIN [2]: 24.3 pg | MEAN CORPUSCULAR HEMOGLOBIN CONCENTRATION [2]: 39.97 G/DL | MEAN CORPUSCULAR VOLUME [2]: 60.83 fL | MONOCYTE [2]: 1.33% | NEUTROPHIL [2]: 10% | NUCLEATED RED BLOOD CELLS [2]: 0 /100WBC | PLATELET COUNT [2]: 1115 x10E3/uL | ALANINE AMINOTRANSFERASE [2]: 69.33 u/L | ALBUMIN [2]: 4.1 G/DL | ALKALINE PHOSPHATASE [2]: 332 u/L | ASPARTATE AMINOTRANSFERASE [2]: 95.67 u/L | BLOOD UREA NITROGEN [2]: 12.33 mg/dL | CARBON DIOXIDE [2]: 33 mmol/L | CHLORIDE [2]: 103 MEQ/L | CHOLESTEROL [2]: 61.33 mg/dL | CREATINE PHOSPHOKINASE [2]: 321 u/L | CREATININE [2]: 0.15 mg/dL | GLUCOSE [2]: 173.33 mg/dL | LACTATE DEHYDROGENASE [2]: 214.67 u/L | LIPASE [2]: 9.67 u/L | PHOSPHORUS [2]: 11.03 mg/dL | POTASSIUM [2]: 5.83 MEQ/L | SODIUM [2]: 145.17 MEQ/L | TOTAL BILIRUBIN [2]: 0.13 mg/dL | TOTAL PROTEIN [2]: 5.53 G/DL | URIC ACID [2]: 1.13 mg/dL | ABSOLUTE BASOPHIL [3]: 0 CELLS/uL | ABSOLUTE EOSINOPHIL [3]: 0 CELLS/uL | ABSOLUTE LYMPHOCYTE [3]: 9646 CELLS/uL | ABSOLUTE MONOCYTE [3]: 275 CELLS/uL | ABSOLUTE SEGMENTED NEUTROPHIL [3]: 3829 CELLS/uL | BASOPHIL [3]: 0% | EOSINOPHIL [3]: 0% | ERYTHROCYTE COUNT [3]: 4.08 x10E6/uL | HEMATOCRIT [3]: 26.8% | HEMOGLOBIN [3]: 10.45 G/DL | LEUKOCYTE COUNT [3]: 13.75 x10E3/uL | LYMPHOCYTE [3]: 70% | MEAN CORPUSCULAR HEMOGLOBIN [3]: 25.55 pg | MEAN CORPUSCULAR HEMOGLOBIN CONCENTRATION [3]: 38.9 G/DL | MEAN CORPUSCULAR VOLUME [3]: 65.7 fL | MONOCYTE [3]: 2% | NEUTROPHIL [3]: 28% | NUCLEATED RED BLOOD CELLS [3]: 0 /100WBC | PLATELET COUNT [3]: 873.5 x10E3/uL | ALANINE AMINOTRANSFERASE [3]: 41 u/L | ALBUMIN [3]: 2.7 G/DL | ALKALINE PHOSPHATASE [3]: 286.5 u/L | ASPARTATE AMINOTRANSFERASE [3]: 125 u/L | BLOOD UREA NITROGEN [3]: 15.5 mg/dL | CARBON DIOXIDE [3]: 28.5 mmol/L | CHLORIDE [3]: 94 MEQ/L | CHOLESTEROL [3]: 75 mg/dL | CREATINE PHOSPHOKINASE [3]: 410 u/L | CREATININE [3]: 0.17 mg/dL | GLUCOSE [3]: 134 mg/dL | LACTATE DEHYDROGENASE [3]: 144 u/L | LIPASE [3]: 9 u/L | PHOSPHORUS [3]: 12 mg/dL | POTASSIUM [3]: 6.89 MEQ/L | SODIUM [3]: 136.5 MEQ/L | TOTAL BILIRUBIN [3]: 0.1 mg/dL | TOTAL PROTEIN [3]: 4.95 G/DL | URIC ACID [3]: 1.35 mg/dL | ABSOLUTE BASOPHIL [4]: 0 CELLS/uL | ABSOLUTE EOSINOPHIL [4]: 0 CELLS/uL | ABSOLUTE LYMPHOCYTE [4]: 3068 CELLS/uL | ABSOLUTE MONOCYTE [4]: 0 CELLS/uL | ABSOLUTE SEGMENTED NEUTROPHIL [4]: 8732 CELLS/uL | BASOPHIL [4]: 0% | EOSINOPHIL [4]: 0% | ERYTHROCYTE COUNT [4]: 2.58 x10E6/uL | HEMATOCRIT [4]: 15.9% | HEMOGLOBIN [4]: 6.6 G/DL | LEUKOCYTE COUNT [4]: 11.8 x10E3/uL | LYMPHOCYTE [4]: 26% | MEAN CORPUSCULAR HEMOGLOBIN [4]: 25.6 pg | MEAN CORPUSCULAR HEMOGLOBIN CONCENTRATION [4]: 41.5 G/DL | MEAN CORPUSCULAR VOLUME [4]: 61.8 fL | MONOCYTE [4]: 0% | NEUTROPHIL [4]: 74% | NUCLEATED RED BLOOD CELLS [4]: 0 /100WBC | PLATELET COUNT [4]: 1731 x10E3/uL | ALANINE AMINOTRANSFERASE [4]: 34 u/L | ALBUMIN [4]: 2.4 G/DL | ALKALINE PHOSPHATASE [4]: 326 u/L | ASPARTATE AMINOTRANSFERASE [4]: 66 u/L | BLOOD UREA NITROGEN [4]: 17 mg/dL | CARBON DIOXIDE [4]: 28 mmol/L | CHLORIDE [4]: 97 MEQ/L | CHOLESTEROL [4]: 55 mg/dL | CREATINE PHOSPHOKINASE [4]: 158 u/L | CREATININE [4]: 0.13 mg/dL | GLUCOSE [4]: 102 mg/dL | LACTATE DEHYDROGENASE [4]: 80 u/L | LIPASE [4]: 9 u/L | PHOSPHORUS [4]: 7.6 mg/dL | POTASSIUM [4]: 6.79 MEQ/L | SODIUM [4]: 138 MEQ/L | TOTAL BILIRUBIN [4]: 0.2 mg/dL | TOTAL PROTEIN [4]: 4.7 G/DL | URIC ACID [4]: 0.9 mg/dL
